From PubChem BioAssay (NCI)
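Cells were grown in 96-well plates and exposed to each compound for 48 hours at five concentrations; endpoints were interpolated linearly between bracketing concentrations, or set to the highest concentration if not reached. Abbreviation: GI50, concentration required for 50% inhibition of growth. TGI: concentration producing complete growth inhibition.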

How the values were obtained:
Assay in all cases: NCI anticancer screen, dose series, 48 h
OVCAR-5 ovarian = tested on: OVCAR-5 ovarian
OVCAR-3 ovarian = tested on: OVCAR-3 ovarian
CCRF-CEM leukemia = tested on: CCRF-CEM leukemia
SN12C renal = tested on: SN12C renal
COLO 205 colon = tested on: COLO 205 colon
IGROV1 ovarian = tested on: IGROV1 ovarian
UACC-257 melanoma = tested on: UACC-257 melanoma
MCF7 breast = tested on: MCF7 breast
U251 CNS = tested on: U251 CNS
OVCAR-8 ovarian = tested on: OVCAR-8 ovarian
NCI-H460 lung = tested on: NCI-H460 lung
SK-OV-3 ovarian = tested on: SK-OV-3 ovarian
OVCAR-4 ovarian = tested on: OVCAR-4 ovarian
HS 578T breast = tested on: HS 578T breast
NCI-H226 lung = tested on: NCI-H226 lung
NCI-H522 lung = tested on: NCI-H522 lung
NCI-H23 lung = tested on: NCI-H23 lung
SF-539 CNS = tested on: SF-539 CNS
CAKI-1 renal = tested on: CAKI-1 renal
SK-MEL-28 melanoma = tested on: SK-MEL-28 melanoma
MDA-MB-435 = tested on: MDA-MB-435
NCI/ADR-RES ovarian = tested on: NCI/ADR-RES ovarian
LOX IMVI melanoma = tested on: LOX IMVI melanoma
A498 renal = tested on: A498 renal
EKVX NSCLC = tested on: EKVX NSCLC
K-562 leukemia = tested on: K-562 leukemia
DU-145 prostate = tested on: DU-145 prostate
HT29 colon = tested on: HT29 colon
T-47D breast = tested on: T-47D breast
SF-295 CNS = tested on: SF-295 CNS
UO-31 renal = tested on: UO-31 renal
KM12 colon = tested on: KM12 colon
HCC-2998 colon = tested on: HCC-2998 colon
ACHN renal = tested on: ACHN renal
RXF 393 renal = tested on: RXF 393 renal
SK-MEL-5 melanoma = tested on: SK-MEL-5 melanoma
HOP-92 NSCLC = tested on: HOP-92 NSCLC
SK-MEL-2 melanoma = tested on: SK-MEL-2 melanoma
786-0 renal = tested on: 786-0 renal
SW-620 colon = tested on: SW-620 colon
HOP-62 NSCLC = tested on: HOP-62 NSCLC
TK-10 renal = tested on: TK-10 renal
MALME-3M melanoma = tested on: MALME-3M melanoma
SR leukemia = tested on: SR leukemia
SNB-19 CNS = tested on: SNB-19 CNS
PC-3 prostate = tested on: PC-3 prostate
SNB-75 CNS = tested on: SNB-75 CNS
HCT-116 colon = tested on: HCT-116 colon
HL-60(TB) leukemia = tested on: HL-60(TB) leukemia
BT-549 breast = tested on: BT-549 breast
SF-268 CNS = tested on: SF-268 CNS
MDA-MB-231 breast = tested on: MDA-MB-231 breast
MOLT-4 leukemia = tested on: MOLT-4 leukemia
A549 NSCLC = tested on: A549 NSCLC
HCT-15 colon = tested on: HCT-15 colon
RPMI-8226 leukemia = tested on: RPMI-8226 leukemia
M14 melanoma = tested on: M14 melanoma
UACC-62 melanoma = tested on: UACC-62 melanoma

Work on O=C(/C=C/c1ccc([N+](=O)[O-])cc1)c1ccc2c3c(cccc13)CC2 yielded a GI50 (OVCAR-5 ovarian) greater than 64.2 µM, a TGI (OVCAR-5 ovarian) greater than 100 µM and a GI50 (OVCAR-3 ovarian) of 3000 nM. The TGI (OVCAR-3 ovarian) was 10.1 µM, the GI50 (CCRF-CEM leukemia) was 5.21 µM and the TGI (CCRF-CEM leukemia) was greater than 100 µM. For the same compound, the GI50 (SN12C renal) was greater than 34.6 µM, the TGI (SN12C renal) was greater than 100 µM and the GI50 (COLO 205 colon) was 4.98 µM. It also gave a TGI (COLO 205 colon) greater than 25.4 µM, a GI50 (IGROV1 ovarian) of 4.36 µM and a TGI (IGROV1 ovarian) of 53.2 µM. For the same compound, the GI50 (UACC-257 melanoma) was greater than 46 µM, the TGI (UACC-257 melanoma) was greater than 94.4 µM and the GI50 (MCF7 breast) was 2700 nM. The TGI (MCF7 breast) was greater than 25.4 µM, the GI50 (U251 CNS) was 2650 nM and the TGI (U251 CNS) was greater than 29.6 µM. The GI50 (OVCAR-8 ovarian) was 22.2 µM, the TGI (OVCAR-8 ovarian) was greater than 100 µM and the GI50 (NCI-H460 lung) was 4.23 µM. It also gave a TGI (NCI-H460 lung) greater than 64.8 µM, a GI50 (SK-OV-3 ovarian) of 33.1 µM and a TGI (SK-OV-3 ovarian) greater than 91.3 µM. For the same compound, the GI50 (OVCAR-4 ovarian) was 13.5 µM, the TGI (OVCAR-4 ovarian) was greater than 100 µM and the TGI (HS 578T breast) was greater than 30.8 µM. It also gave a GI50 (NCI-H226 lung) greater than 37.2 µM, a TGI (NCI-H226 lung) greater than 100 µM and a GI50 (NCI-H522 lung) of 9.77 µM. For the same compound, the TGI (NCI-H522 lung) was 34.5 µM, the GI50 (NCI-H23 lung) was 29.1 µM and the TGI (NCI-H23 lung) was greater than 100 µM. It also gave a GI50 (SF-539 CNS) of 2630 nM, a TGI (SF-539 CNS) of 7.72 µM and a GI50 (CAKI-1 renal) of 9.69 µM. For the same compound, the TGI (CAKI-1 renal) was greater than 100 µM, the GI50 (SK-MEL-28 melanoma) was 18.2 µM and the TGI (SK-MEL-28 melanoma) was 58.9 µM. For the same compound, the GI50 (MDA-MB-435) was 15.8 µM, the TGI (MDA-MB-435) was greater than 63.4 µM and the GI50 (NCI/ADR-RES ovarian) was 20.8 µM. For the same compound, the TGI (NCI/ADR-RES ovarian) was greater than 100 µM, the GI50 (LOX IMVI melanoma) was 4.26 µM and the TGI (LOX IMVI melanoma) was 17.6 µM. The GI50 (A498 renal) was 11.6 µM, the TGI (A498 renal) was 43.5 µM and the GI50 (EKVX NSCLC) was 62.9 µM. The TGI (EKVX NSCLC) was greater than 100 µM, the GI50 (K-562 leukemia) was 4.37 µM and the TGI (K-562 leukemia) was greater than 100 µM. It also gave a GI50 (DU-145 prostate) of 4.23 µM, a TGI (DU-145 prostate) greater than 40.9 µM and a GI50 (HT29 colon) of 5.05 µM. For the same compound, the TGI (HT29 colon) was greater than 100 µM, the GI50 (T-47D breast) was 1570 nM and the TGI (T-47D breast) was greater than 24.8 µM. For the same compound, the GI50 (SF-295 CNS) was 6.23 µM, the TGI (SF-295 CNS) was greater than 100 µM and the GI50 (UO-31 renal) was 10.4 µM. For the same compound, the TGI (UO-31 renal) was greater than 62.6 µM, the GI50 (KM12 colon) was 3.1 µM and the TGI (KM12 colon) was 14.2 µM. It also gave a GI50 (HCC-2998 colon) of 26.9 µM, a TGI (HCC-2998 colon) greater than 78.1 µM and a GI50 (ACHN renal) of 47.9 µM. The TGI (ACHN renal) was greater than 100 µM, the GI50 (RXF 393 renal) was 4.47 µM and the TGI (RXF 393 renal) was 21.3 µM. The GI50 (SK-MEL-5 melanoma) was 33.2 µM, the TGI (SK-MEL-5 melanoma) was greater than 100 µM and the GI50 (HOP-92 NSCLC) was 2430 nM. It also gave a TGI (HOP-92 NSCLC) of 15.4 µM, a GI50 (SK-MEL-2 melanoma) greater than 100 µM and a TGI (SK-MEL-2 melanoma) greater than 100 µM. It also gave a GI50 (786-0 renal) of 10.2 µM, a TGI (786-0 renal) greater than 88.9 µM and a GI50 (SW-620 colon) of 2340 nM. The TGI (SW-620 colon) was 6.62 µM, the GI50 (HOP-62 NSCLC) was 11.4 µM and the TGI (HOP-62 NSCLC) was greater than 81.9 µM. For the same compound, the GI50 (TK-10 renal) was 31.4 µM, the TGI (TK-10 renal) was greater than 75 µM and the GI50 (MALME-3M melanoma) was greater than 64.2 µM. It also gave a TGI (MALME-3M melanoma) greater than 100 µM, a GI50 (SR leukemia) of 2020 nM and a TGI (SR leukemia) of 24.9 µM. For the same compound, the GI50 (SNB-19 CNS) was 3.36 µM, the TGI (SNB-19 CNS) was 17.4 µM and the GI50 (PC-3 prostate) was 4.72 µM. The TGI (PC-3 prostate) was greater than 100 µM, the GI50 (SNB-75 CNS) was 4.95 µM and the TGI (SNB-75 CNS) was 23.8 µM. The GI50 (HCT-116 colon) was 4.33 µM, the TGI (HCT-116 colon) was 25.7 µM and the GI50 (HL-60(TB) leukemia) was 4.51 µM. The TGI (HL-60(TB) leukemia) was 29 µM, the GI50 (BT-549 breast) was 23.6 µM and the TGI (BT-549 breast) was greater than 90.4 µM. The GI50 (SF-268 CNS) was 8.18 µM, the TGI (SF-268 CNS) was greater than 100 µM and the GI50 (MDA-MB-231 breast) was greater than 52.8 µM. For the same compound, the TGI (MDA-MB-231 breast) was greater than 100 µM, the GI50 (MOLT-4 leukemia) was 1270 nM and the TGI (MOLT-4 leukemia) was 11.3 µM. The GI50 (A549 NSCLC) was 10.3 µM, the TGI (A549 NSCLC) was greater than 100 µM and the GI50 (HCT-15 colon) was 5.07 µM. The TGI (HCT-15 colon) was greater than 100 µM, the GI50 (RPMI-8226 leukemia) was 1640 nM and the TGI (RPMI-8226 leukemia) was 4.84 µM. The GI50 (M14 melanoma) was greater than 64.6 µM, the TGI (M14 melanoma) was greater than 100 µM and the GI50 (UACC-62 melanoma) was greater than 48.4 µM. For the same compound, the TGI (UACC-62 melanoma) was greater than 100 µM.
